From patent US20170095524A1, “METHODS FOR MODULATING CANCER CELLS AND STEM CELLS” (The Scripps Research Institute, priority 2014, published 2017) come the findings set out here.

Experiment [1] has as its system LIN28. Kind of experiment: Western blot of LIN28 levels in P19 cells treated with IGF1R and calpain inhibitors. To be noted: acute treatment (~12 hrs). The format is cell-based. From the text:
FIGS. 4A-4B show regulation of LIN28 levels by RBM3, IGF1R, and calpain. (A) Western blot showing the effect of RBM3 knock-down (siRNA) on LIN28 levels in P19 cells treated at the neurosphere stage with (or without) retinoic acid (RA) to induce neural differentiation. RBM3 knock-down increases LIN28 and blocks the ability of RA to decrease LIN28. (B) Western blots showing reduction of LIN28 in P19 cells following acute treatment (˜12 hrs) with inhibitors of IGF1R and calpain (each of which increases the expression of the dephosphorylated form of RBM3). […] HDAC is a loading control.
FIGS. 7A-7D show results from additional studies of reducing LIN28 levels via synergistic dual inhibitor strategies. (A & B) Graphs of changes in RBM3 and LIN28 expression in P19 cells treated with the IGF1R inhibitor PPP (10 nM), the calpain inhibitor calpeptin (Cpep, 50 μM), and a combination of PPP plus Cpep (A: n=10-14; B: n=20-24). (C) (top panels) Example of Westerns of LIN28 in P19 cells exposed to PPP, Cpep, and PPP+Cpep; (bottom panels) Example of Westerns of LIN28 and RBM3 in samples from P19 cells treated in triplicate with control and Cpep+PPP conditions. (D) Fold change in let-7 family miRNAs and miR-21 in P19 cells treated with PPP+Cpep as measured by qRT-PCR (n=4). All treatments were for 36 hours. […]

Experiment [2] has as its system RBM3. The experiment is described as follows: 2D Western blot of RBM3 phosphorylation forms in P19 cells after calpain inhibition. The format is cell-based. From the text:
(Top) 2D Western blot of RBM3 in vehicle-treated (DMSO) P19 cells. Red arrows point to exogenously expressed mutant of RBM3 (A4F) with 4 C-term Y to F mutations, and to two phosphorylated endogenous isoforms of RBM3 that differ by a single arginine (Arg). […] A basic spot not present in the control condition appears that corresponds to the pI of dephosphorylated Arg+RBM3, the form of RBM3 that preferentially associates with pre-miRNAs. We further observed that calpain inhibition rescues expression of dephosphorylated RBM3 in pluripotent cells. Calpains are Ca^++-activated cysteine proteases that regulate diverse cellular processes. Calpain's role in pluripotent and cancerous cells prompted us to test whether it regulates the expression of the dephosphorylated form of RBM3 in pluripotent cells (and accounts for the difficulty in expressing non-phosphorylatable mutants in these cells).

For `CCCC[C@@H](C=O)NC(=O)[C@H](CC(C)C)NC(=O)OCc1ccccc1` [calpeptin], in experiment [1] (Cpep 50 μM), the “LIN28 levels (Western blot)” value is given as “reduces LIN28 levels”. In experiment [2] (P19 cells incubated with calpain inhibitor vs DMSO vehicle), the “RBM3 pI distribution (2D Western); basic spot corresponding to dephosphorylated Arg+RBM3 appears” value is “shift in RBM3 pI distribution”. In addition, in experiment [2] (pluripotent P19 cells), the “levels of a non-phosphorylatable mutant of RBM3” value is “increased” and the “levels of the endogenous dephosphorylated form of RBM3 that binds pre-miRNAs (dephos Arg+)” value was “increased”.

Consider `COc1cc([C@@H]2c3cc4c(cc3[C@H](O)[C@H]3COC(=O)[C@@H]23)OCO4)cc(OC)c1OC` [picropodophyllin], for which, in experiment [1] (PPP 10 nM), the “LIN28 levels (Western blot)” value is reported as “reduces LIN28 levels”.
